The test has as its target T1, wild-type isocitrate dehydrogenase 1 (wtIDH1) (Homo sapiens, UniProt O75874).
T1 construct: gene IDH1; human recombinant IDH1
The test is described as follows: cell-free fluorometric NADPH formation assay at […] Mg2+. It is filed as biochemical.

The record followed here is paper PMC9325670, “Limited nutrient availability in the tumor microenvironment renders pancreatic tumors sensitive to allosteric IDH1 inhibitors” (Nature Cancer, 2022).

T1 sequence (O75874 2-414): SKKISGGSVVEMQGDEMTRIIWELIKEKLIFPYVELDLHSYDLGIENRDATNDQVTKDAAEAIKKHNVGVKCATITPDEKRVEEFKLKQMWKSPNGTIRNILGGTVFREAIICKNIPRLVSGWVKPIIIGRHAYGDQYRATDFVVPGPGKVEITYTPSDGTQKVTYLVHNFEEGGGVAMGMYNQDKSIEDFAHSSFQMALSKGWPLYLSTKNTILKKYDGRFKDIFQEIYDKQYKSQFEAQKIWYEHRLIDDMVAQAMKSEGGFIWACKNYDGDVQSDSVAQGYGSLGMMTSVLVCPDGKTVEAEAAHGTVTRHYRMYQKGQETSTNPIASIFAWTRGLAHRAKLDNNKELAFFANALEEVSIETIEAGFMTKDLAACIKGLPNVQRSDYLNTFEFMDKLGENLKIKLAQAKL

As to `CC1(C)CN(C(=O)c2cn[nH]c2)Cc2c(C(=O)Nc3ccc(F)cc3)nn(Cc3ccc(C(F)(F)F)cc3)c21` [FSM-3-002], the IC50 worked out at 91.4 nM. This lies in the double-digit nanomolar range.
